Source: patent US20030198617A1, “Pharmaceutical tryptophan containing dipeptide compositions and methods of use thereof” (priority 1993, published 2003)
Marks after values point to notes of the source that are not given here.

Legend:
T-cells = test: T-cell rosette assay; assay type: cell-based; settings: 10^6 cells per ml
[1] = Immunity and non-specific resistance indices in breast cancer patients after radiotherapy; assay type: in vivo, human; settings: after IM862 use
[2] = Blood parameters of Chernobyl victims after 3 years of treatment; assay type: in vivo, human; settings: after therapy, IM862
Text: Blood parameters after 3 years of such treatment were restored to the statistical norm prior to their exposure to the radiation.

Post-term women = assay type: in vivo, human; settings: IM862 IM or intranasally over 3-5 days, 19 women
Protocol: A total of 19 post-term women and 48 women post-term in the control study were treated.

[3] = Resistance to excessive solar radiation in hot marine climates; assay type: in vivo, human; settings: IM862 intranasally 100 μg 3 days, 27 persons
Protocol: The control group comprised 24 persons. The administration was intranasally 100 μg for 3 days. […] There was also noted suppression of their immunologic indices.

[4] = Immune system of guinea pigs after radiation exposure (thymus, lymph node, spleen, blood); assay type: in vivo
Text: Seventy-two of the animals were irradiated with total radiation dose was 1 Gr. […] The selected doses were optimal in stimulating an immune response to ram erythrocytes. Control irradiated and non-irradiated animals (24 guinea pigs to each group) were given saline solution per an analogous schedule. At 5, 10, and 20 days after irradiation the animals were destroyed (8 guinea pigs from each group). The thymus, spleen, and lymph nodes of each animal were extracted and their weight coefficients computed. The number of karyocytes, T-, B-, and O-lymphocytes in each organ was determined. Also, the functional activity of blood lymphocytes in the leukocyte migration inhibition reaction to Con A was assessed and the content of cation proteins in the neutrophils was determined.

[5] = Pediatric purulent maxillary sinusitis, local IM862; assay type: in vivo, human; settings: for B-lymphocytes % / B-lymphocytes abs. / Immune complexes / Leukocytes, abs / Lymphocytes % / Lymphocytes, abs / O-lymphocytes % / O-lymphocytes abs. / T-lymphocytes % / T-lymphocytes abs. / Lysozyme: after treatment c IM862
[6] = Psoriasis study (Example 108); assay type: in vivo, human; settings: during treatment
Protocol: A comparative study of immunological, coagulation, and acute phase protein parameters was conducted on 30 patients with disseminated forms of psoriasis on normal treatment. Twenty-seven patients had widespread lesions of the smooth skin and scalp; two had psoriatic erythroderma. The period of illness in the majority of those examined exceeded 5 years. In two persons the nail plates were involved in the form of a “thimble” symptom.
Patients were treated under identical conditions and received therapy of vitamins B12, B6, and A, folic acid, pyrogens, sedatives, and desensitizing preparations. Salidol ointment and 3-5% sulfur-salicylic ointments were used locally.
Basic immunological and coagulation assays were conducted on all patients. The findings obtained were compared with the results of investigations done on healthy people between the ages of 18-40 years. […] At the same time, a drop is noted in the quantity of T-lymphocytes, a decrease in the level of T-helpers and suppressors, and a growth in the concentrations of IgA, M, and to a lesser degree, IgG.

[7] = 20 days after irradiation, IM862 0.01 mg/kg daily for 5 days
[8] = acute purulent maxillary sinusitis
[9] = chronic purulent maxillary sinusitis and Highmore ethmoiditis
[10] = second group, after IM862 treatment

For Glu-Trp [IM862], the “concentration of peak effect for rosette activity” value (T-cells) was “approximately 0.0006 mcg/ml”, the “B-lymphocyte (Ig^+) (×10^9/l)” value [1] was 0.17 ± 0.02 ×10^9/l and the “C3-complement” value [1] was 0.68 ± 0.04 g/L. The Cation [1] was 1.49 ± 0.12, the “LMI with ConA, %” value [1] was 71 ± 5 % and the “Lymphocytes ×10^9/l” value [1] was 1.72 ± 0.21 ×10^9/l. The “OKT4^+/OKT8^+” value [1] was 1.86 ± 0.17, the Phagocytic index [1] was 3.7 ± 0.2 and the “T-helpers (OKT4^+)” value [1] was 0.39 ± 0.04. For the same substance, the “T-lymphocytes (×10^9/l)” value [1] was 0.92 ± 0.12 ×10^9/l, the “T-suppressors (OKT8^+) (×10^9/l)” value [1] was 0.21 ± 0.03 ×10^9/l and the ““Active” T-lymphocytes (×10^9/l)” value [1] was 0.52 ± 0.07 ×10^9/l. For the same substance, the “DSH to tuberculin (mm)” value ([1]; delayed-skin hypersensitivity) was 8.7 ± 0.6 mm, the “SI to IM862” value ([1]; sensitivity index) was 1.27 ± 0.14 and the “B-Ig+, %” value [2] was 11.0 ± 0.3%. The “B-Ig+, abs” value [2] was 0.23 ± 0.04 10^9/l, the “B-IgA+, %” value [2] was 1.9 ± 0.3% and the “B-IgA+, abs” value [2] was 0.04 ± 0.002 10^9/l. For the same substance, the “B-IgG+, %” value [2] was 4.8 ± 0.5%, the “B-IgG+, abs” value [2] was 0.09 ± 0.007 10^9/l and the “B-IgM+, %” value [2] was 4.1 ± 0.6 %. The “B-IgM+, abs” value [2] was 0.12 ± 0.003 10^9/l, the “CD2-DR+, &” value [2] was 32 ± 3 & and the “CD2-DR+, abs” value [2] was 0.66 ± 0.10** 10^9/l. The “CD3, %” value [2] was 59.2 ± 2.1 %, the “CD3, abs” value [2] was 1.21 ± 0.15 10^9/l and the “CD4, %” value [2] was 36.2 ± 1.7%. For the same substance, the “CD4, abs” value [2] was 0.74 ± 0.08 10^9/l, the “CD8, %” value [2] was 23.2 ± 2.1 % and the “CD8, abs” value [2] was 0.48 ± 0.07** 10^9/l. For the same substance, the “IMI, %” value [2] was 75 ± 6 %, the “IgA” value [2] was 1.2 ± 0.4 g/L and the “IgG” value [2] was 10.9 ± 1.3 g/L. For the same substance, the “IgM” value [2] was 1.06 ± 0.06 g/L, the “Leukocytes, abs” value [2] was 5.6 ± 0.4 10^9/l and the “Lymphocytes, abs” value [2] was 2.1 ± 0.3 10^9/l. For the same substance, the T4/T8 [2] was 1.58 ± 0.04, the clinical effect (Post-term women) was “effacement of the cervix” and the clinical effect [3] was “prevented the occurrence of upper respiratory infections”. The “cation protein count in the blood neutrophils” value ([4]; 10 and 20 days after irradiation) was “normalized at 10 and 20 days after irradiation”, the “Lymph Node: B-lymphocytes %” value [4, 7] was 3.5 ± 0.6^x % and the “Lymph Node: B-lymphocytes ×10^3/mg” value [4, 7] was 9.2 ± 0.9^x ×10^3/mg. The “Lymph Node: Lymphocytes ×10^3/mg” value [4, 7] was 242.5 ± 31.3^xx ×10^3/mg, the “Lymph Node: O-lymphocytes %” value [4, 7] was 84.4 ± 12.3% and the “Lymph Node: O-lymphocytes ×10^3/mg” value [4, 7] was 204.6 ± 33.4^xx ×10^3/mg. The “Lymph Node: T-lymphocytes %” value [4, 7] was 12.3 ± 0.9%, the “Lymph Node: T-lymphocytes ×10^3/mg” value [4, 7] was 29.9 ± 2.2^xx ×10^3/mg and the “Lymph Node: Weight coefficient” value [4, 7] was 0.31 ± 0.03 g/kg. For the same substance, the “Lymph Node: “Active” T-lymphocytes %” value [4, 7] was 10.3 ± 1.4%, the “Lymph Node: “Active” T-lymphocytes ×10^3/mg” value [4, 7] was 24.9 ± 3.7^xx ×10^3/mg and the “Splenic: B-lymphocytes %” value [4, 7] was 27.1 ± 2.6%. For the same substance, the “Splenic: B-lymphocytes ×10^3/mg” value [4, 7] was 81.6 ± 9.3 ×10^3/mg, the “Splenic: Lymphocytes ×10^3/mg” value [4, 7] was 260.4 ± 32.3^xx ×10^3/mg and the “Splenic: O-lymphocytes %” value [4, 7] was 57.4 ± 6.7%. The “Splenic: O-lymphocytes ×10^3/mg” value [4, 7] was 149.4 ± 15.9^x ×10^3/mg, the “Splenic: T-lymphocytes %” value [4, 7] was 17.4 ± 1.2% and the “Splenic: T-lymphocytes ×10^3/mg” value [4, 7] was 45.4 ± 4.1^xx ×10^3/mg. For the same substance, the “Splenic: Weight coefficient” value [4, 7] was 1.26 ± 0.9 g/kg, the “Splenic: “Active” T-lymphocytes %” value [4, 7] was 11.1 ± 2.0% and the “Splenic: “Active” T-lymphocytes ×10^3/mg” value [4, 7] was 28.9 ± 3.9^xx ×10^3/mg. The “Thymic: B-lymphocytes %” value [4, 7] was 0.9 ± 0.08^xx %, the “Thymic: B-lymphocytes ×10^3/mg” value [4, 7] was 3.7 ± 0.4 ×10^3/mg and the “Thymic: Lymphocytes ×10^3/mg” value [4, 7] was 423.3 ± 40.4^xx ×10^3/mg. For the same substance, the “Thymic: O-lymphocytes %” value [4, 7] was 17.9 ± 0.8%, the “Thymic: O-lymphocytes ×10^3/mg” value [4, 7] was 75.4 ± 8.6^xx ×10^3/mg and the “Thymic: T-lymphocytes %” value [4, 7] was 81.3 ± 9.3%. The “Thymic: T-lymphocytes ×10^3/mg” value [4, 7] was 342.8 ± 30.4^xx ×10^3/mg, the “Thymic: Weight coefficient g/kg” value [4, 7] was 0.81 ± 0.8^xx g/kg and the “Thymic: “Active” T-lymphocytes %” value [4, 7] was 57.6 ± 6.2^xx %. For the same substance, the “Thymic: “Active” T-lymphocytes ×10^3/mg” value [4, 7] was 242.6 ± 26.8^xx ×10^3/mg, the “percent of leukocyte migration (blood lymphocytes, Con A)” value ([4]; irradiated guinea pigs, 5 and 20 days after irradiation) was “normalized this index by 20 days after radiation exposure” and the B-lymphocytes % [5, 8] was 21.9 ± 2.1%. It also gave a B-lymphocytes abs. [5, 8] of 778.0 ± 89.9, an Immune complexes [5, 8] of 113.3 ± 15.3 and a Leukocytes, abs [5, 8] of 7200.0 ± 234.5. For the same substance, the Lymphocytes % [5, 8] was 44.7 ± 1.7%, the Lymphocytes, abs [5, 8] was 3281.3 ± 235.0 and the O-lymphocytes % [5, 8] was 34.3 ± 2.4%. It also gave an O-lymphocytes abs. [5, 8] of 1082.0 ± 21.0, a T-lymphocytes % [5, 8] of 41.8 ± 1.2% and a T-lymphocytes abs. [5, 8] of 1420.3 ± 131.6. It also gave a Lysozyme ([5]; acute purulent maxillary sinusitis, outwash from sinuses) of 45.0 ± 5.9, a B-lymphocytes % [5, 9] of 20.7 ± 0.7% and a B-lymphocytes abs. [5, 9] of 562.0 ± 38.1. The Immune complexes [5, 9] was 90.8 ± 10.0, the Leukocytes, abs [5, 9] was 6650.0 ± 262.2 and the Lymphocytes % [5, 9] was 41.5 ± 2.6%. For the same substance, the Lymphocytes, abs [5, 9] was 2761.8 ± 212.6, the Lysozyme [5, 9] was 52.4 ± 4.1 and the O-lymphocytes % [5, 9] was 37.4 ± 1.9%. The O-lymphocytes abs. [5, 9] was 1052.5 ± 109.3, the T-lymphocytes % [5, 9] was 41.8 ± 1.0% and the T-lymphocytes abs. [5, 9] was 1109.8 ± 74.1. The “time until improvement was noted” value ([5]; first group) was 2 to 3 days, the average hospital stay ([5]; first group (acute and subacute)) was 9.2 days and the “quantity of crystallization centers in irrigated fluid” value ([5]; first group, end of treatment) was 30-50. For the same substance, the “cessation of exudation, number of patients” value (“cessation of exudation” for short) ([5]; first group, in 7-9 days of treatment) was 3 patients, the “cessation of exudation” value ([5]; first group, on the 6th day of treatment) was 5 patients and the “nasal breathing and general sense of wellness normalized, number of patients” value ([5]; second group) was 38 patients. The average hospital stay ([5]; second group (chronic)) was 8 days, the “immunoglobulin M remained elevated, number of patients” value [5, 10] was 24 patients and the “serum immunoglobulin A normalized, number of patients” value [5, 10] was 10 patients. For the same substance, the “serum immunoglobulin G normalized, number of patients” value [5, 10] was 6 patients, the “increase in exudation from the affected sinuses” value ([5]; second group, at 3-4 days of treatment vs second 24-hour period) was 10-15% and the “quantity of crystallization centers in irrigated fluid” value ([5]; second group, control crystallograms) was 50-60. For the same substance, the “disappearance of edema of the nasal mucosa, number of patients” value ([5]; second group, following 4-5 days of treatment) was 32 patients, the “exudate attained a mucous character, number of patients” value (“exudate attained a mucous character” for short) ([5]; second group, in 3-4 days) was 27 patients and the “cessation of exudation” value ([5]; second group, in 4-6 days) was 18 patients. The “exudate attained a mucous character” value ([5]; second group, in 5-6 days) was 13 patients, the “cessation of exudation” value ([5]; second group, in 7-9 days) was 20 patients and the “exudate attained a mucous character” value ([5]; second group, in 7-9 days) was “two”. The “cessation of exudation” value ([5]; second group, in 10-14 days) was 4 patients, the “therapeutic action during localized use” value ([5]; various forms of paranasal sinusitis) was “normalization of nasal breathing, decrease in nasal cavity mucosal edema, cessation of exudation from the involved sinuses” and the “clinical status and immunological parameters” value [6] was “improvement in clinical status and normalization of immunological parameters”.
